Reference: PubChem BioAssay (NCI)
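96-well plates; 48 h exposure; 5 concentrations. Endpoints by linear interpolation between flanking doses. Not reached: highest tested concentration assigned. TGI marks complete inhibition of growth.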

Assays:
Assay in all cases: NCI-60 cell line screen, 48 h
MOLT-4 leukemia = test system: MOLT-4 leukemia
HL-60(TB) leukemia = test system: HL-60(TB) leukemia
EKVX NSCLC = test system: EKVX NSCLC
HT29 colon = test system: HT29 colon
HOP-62 NSCLC = test system: HOP-62 NSCLC
IGROV1 ovarian = test system: IGROV1 ovarian
K-562 leukemia = test system: K-562 leukemia
OVCAR-8 ovarian = test system: OVCAR-8 ovarian
OVCAR-3 ovarian = test system: OVCAR-3 ovarian
T-47D breast = test system: T-47D breast
MDA-MB-231 breast = test system: MDA-MB-231 breast

SMILES | TGI (MOLT-4 leukemia) | TGI (HL-60(TB) leukemia) | TGI (EKVX NSCLC) | TGI (HT29 colon) | TGI (HOP-62 NSCLC) | TGI (IGROV1 ovarian) | TGI (K-562 leukemia) | TGI (OVCAR-8 ovarian) | TGI (OVCAR-3 ovarian) | TGI (T-47D breast) | TGI (MDA-MB-231 breast)
Cc1cccc2c1Sc1ccccc1C2NC(=O)CN(C)C (stereo not drawn) | > 100 µM | > 100 µM | > 100 µM | > 100 µM | > 100 µM | > 100 µM | > 100 µM | > 100 µM | – | – | –
CSCC(CO)NC(=O)/C=C/c1c(C)[nH]c(=O)[nH]c1=O (stereo not drawn) | > 875 µM | > 875 µM | 872 µM | > 875 µM | > 875 µM | > 875 µM | > 875 µM | > 348 µM | 444 µM | – | –
Cc1ccc(C(C)C)c(OCC(=O)N/N=C/c2c[nH]c3ccc(Br)cc23)c1 | 14.2 µM | 7.42 µM | 11.1 µM | 4.78 µM | 22 µM | 13.1 µM | 11.4 µM | 15 µM | 5.92 µM | 24.8 µM | 9.89 µM
NNC(=O)c1cc([N+](=O)[O-])ccc1NC(=O)C12CC3CC(CC(C3)C1)C2 | > 100 µM | 22.1 µM | > 100 µM | > 100 µM | > 100 µM | 8.53 µM | > 100 µM | > 100 µM | 84.3 µM | 72.2 µM | 56.5 µM
Clc1cc(OCc2nn3c(Cc4ccccc4)nnc3s2)c(Cl)cc1OCc1nn2c(Cc3ccccc3)nnc2s1 | 19.8 µM | > 100 µM | > 100 µM | > 100 µM | > 100 µM | > 100 µM | 24.2 µM | > 100 µM | > 100 µM | > 100 µM | > 100 µM
O=C(Sc1n[nH]c(=O)[nH]c1=O)c1cccc2nc3ccccc3nc12 | > 100 µM | > 100 µM | > 100 µM | 61.9 µM | – | > 100 µM | > 100 µM | > 100 µM | > 100 µM | > 100 µM | > 100 µM
CO/C=C1\OC(=O)C=C1OC | > 100 µM | > 100 µM | > 100 µM | > 100 µM | – | > 100 µM | > 100 µM | > 100 µM | > 100 µM | – | –
CN(c1ccccc1)c1nc(=[N+]2CCCC2)ss1 | > 100 µM | > 100 µM | > 100 µM | – | – | > 100 µM | > 100 µM | > 100 µM | > 100 µM | – | –
CC(=O)OC1CC(OC2C(O)CC(OC3C(O)CC(OC4CCC5(C)C(CCC6C5CCC5(C)C(C7=CC(=O)OC7)CCC65O)C4)OC3C)OC2C)OC(C)C1OC1OC(CO)C(O)C(O)C1O (stereo not drawn) | > 100 µM | 0.0827 µM | 0.0536 µM | 0.171 µM | < 0.0156 µM | 0.289 µM | > 100 µM | 0.139 µM | 0.0883 µM | 0.344 µM | 2.98 µM
CC1(C)N=C(c2ccccc2)SC12S[C@@H]1CCCC[C@H]1S2 | > 100 µM | > 100 µM | > 100 µM | > 100 µM | > 100 µM | > 100 µM | > 100 µM | > 100 µM | > 100 µM | > 100 µM | > 100 µM
COc1cc(NCCC(=O)O)c2ncccc2c1 | > 100 µM | > 100 µM | > 100 µM | > 100 µM | > 100 µM | > 100 µM | > 100 µM | > 100 µM | > 100 µM | > 100 µM | > 100 µM
